This is an account of results in patent publication US20250163119A1, “COMPOUNDS FOR THE TREATMENT OF DIABETES OR OBESITY” (Eli Lilly and Company, priority 2023, published 2025).

*1 amine or outer side, *2 acyl side, *3 side chain or, on linkers, in order; H or OH if unused. Where a SMILES comes first, the peptide text is derived from it. Side-chain parts run from the residue outwards. [ ]: non-standard residue; d: D form. The star is where a group is joined. C20 diacid = O=C(O)CCCCCCCCCCCCCCCCCCC(=O)*; C18 diacid = O=C(O)CCCCCCCCCCCCCCCCC(=O)*; γGlu = O=C(O)[C@H](CCC(=O)[*:2])N[*:1]; εLys = N[C@@H](CCCCN[*:1])C(=O)[*:2]; αMeL = CC(C)C[C@](C)(N)C(=O)O; Dap = NC[C@H](N)C(=O)O; AEEA = NCCOCCOCC(=O)O; Aib = CC(C)(N)C(=O)O

One experiment concerns the target T1, human CRHR2 (Homo sapiens, UniProt Q13324).
T1 construct: expressed in transfected cells
T1 sequence (Q13324 1-438 isoform Q13324-2): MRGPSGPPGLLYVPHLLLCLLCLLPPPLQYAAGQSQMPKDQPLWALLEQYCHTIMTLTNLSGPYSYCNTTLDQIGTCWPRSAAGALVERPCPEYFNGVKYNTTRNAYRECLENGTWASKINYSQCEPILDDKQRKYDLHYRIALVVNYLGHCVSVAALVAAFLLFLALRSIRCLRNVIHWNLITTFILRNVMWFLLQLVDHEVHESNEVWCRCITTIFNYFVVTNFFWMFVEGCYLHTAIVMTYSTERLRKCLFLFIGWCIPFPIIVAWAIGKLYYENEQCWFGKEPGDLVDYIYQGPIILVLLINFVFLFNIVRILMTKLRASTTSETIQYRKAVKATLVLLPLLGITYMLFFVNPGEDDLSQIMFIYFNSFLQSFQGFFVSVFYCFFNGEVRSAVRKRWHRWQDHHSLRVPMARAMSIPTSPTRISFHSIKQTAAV
In words: Human CRHR2 cAMP assay (HTRF) in HEK293 cells stably expressing human CRHR2. The conditions noted are these: HEK293 cells overexpressing human CRHR2; relative EC50, maximum 10 nM human UCN2; mean ± SE; read-out: hCRHR2 cAMP EC50 (pM, ± SE). Type of experiment: cell-based. As to the method:
(§1) The corticotropin-releasing hormone (CRH) receptor 1 and 2 (CRHR1 and CRHR2) are GPCRs that were functionally coupled to Gs proteins. Stimulation of these receptors results in an increased production of intracellular cAMP, which can be detected using standard in vitro technologies. In vitro activity of peptides was measured by the amount of cAMP formed in human CRHR1 and CRHR2 overexpressed cells.
(§2) Human CRHR1 and CRHR2 receptors were stably expressed in human embryonic kidney cells (HEK293) under control of a pcDNA expression vector. The HEK293 cell line was cultured in DMEM 1× (Gibco, 93-0152DK) supplemented with 10% FBS, 1 mM sodium pyruvate, 1×MEM NEAA, 1× GlutaMAX and 10 mM HEPES. The plasmids of human CRHR1-pQCXIP (T7364) and human CRHR2b-R2683puro (T16761) DNA were transfected into HEK293 cells using Lipo fectAMINE 3000 Transfection reagent (Invitrogen, L3000001). After 20 days under selection, the mRNA levels from different clones were measured to confirm the expression of human CRHR1 and CRHR2 genes. To determine the function of over-expressed CRHR cells, the intracellular cAMP levels in response to human UCN1 and UCN2 were measured and compared to the expression of CRHR1 and CRHR2 mRNA in each clone.
(§3) Human CRHR1 cells were cultured in DMEM 1× (Gibco, 93-0152DK) supplemented with 10% FBS, 1 mM sodium pyruvate, 1×MEM NEAA, 1×GlutaMAX, 10 mM HEPES, and 800 μg/ml G418. Human CRHR2 cells were cultured at the same media (DMEM 1×, 10% FBS, 1 mM sodium pyruvate, 1×MEM NEAA, 1×GlutaMAX, 10 mM HEPES) in the presence of 0.5 ug/mL puromycin. Cultured cells were grown to 90% confluency and harvested. The cells were frozen at 10×10e6/ml in a mixture of […] fetal bovine serum plus 7% DMSO and stored in liquid nitrogen until use.
(§4) On the day of the assay, the frozen cells were thawed and diluted in assay buffer (Phenol Red free MEM (Corning, 17-305-CV, lot #32121010), 0.1% Casein (Sigma C4765, lot #SLCG2120), 5 mM HEPES pH 7.4 containing 0.25 mM IBMX). 10 ul of human CRHR1 cells (25,000 cells) or 10 μL of human CRHR2 cells (5,000 cells) were dispensed into each well of white poly-D-lysine coated 384-well plates (Corning cat #354661). Test compounds diluted in DMSO were added (200 nL/well) in a 1:3 dilution series using ECHO acoustic liquid handler (Beckman). The mixture of cells and test compounds were incubated at 37° C. for 1 hour for the hCRHR1 plate, while the CRHR2 plates were incubated at room temperature for 30 min.
(§5) The amount of intracellular cAMP was quantitated using HTRF technology (Homogeneous Time Resolved Fluorescence; Cisbio) as per vendor instructions. Briefly, 10 uL CAMP-d2 conjugate and 10 uL anti-CAMP-cryptate conjugate in lysis buffer were incubated with the treated cells at room temperature for 60 min. The HTRF signal was immediately detected using an Envision plate reader (Perkin-Elmer) to calculate the ratio of fluorescence at 665 to 620 nm.
(§6) Raw fluorescence data for concentration curves of the peptides in Table 2 and Table 3 were converted to cAMP amount (pmol/well) using a cAMP standard curve generated for each experiment.
In the case of “{C18 diacid-εLys-AEEA-γGlu}-GSPSIVTS[αMeL]DVPT[Aib][αMeL]LQKILEQERAEKARQQATEAAEILAQV-NH2 [SEQ ID NO: 28]”, the EC50 amounted to 12.8 ± 2 pM.

As for `CC[C@H](C)[C@H](NC(C)=O)C(=O)N[C@H](C(=O)N[C@H](C(=O)N[C@@H](CO)C(=O)N[C@@](C)(CC(C)C)C(=O)N[C@@H](CC(=O)O)C(=O)N[C@@H](C(=O)N1CCC[C@H]1C(=O)N[C@H](C(=O)NCC(=O)N[C@@](C)(CC(C)C)C(=O)N[C@@H](CC(C)C)C(=O)N[C@@H](CCC(N)=O)C(=O)N[C@H](C(=O)N[C@@H](CCCCN)C(=O)N[C@@H](CC(C)C)C(=O)N[C@@H](CCC(=O)O)C(=O)N[C@@H](CCC(N)=O)C(=O)N[C@@H](CCC(=O)O)C(=O)N[C@@H](CCCNC(=N)N)C(=O)N[C@@H](C)C(=O)N[C@@H](CCC(=O)O)C(=O)N[C@@H](CCCCN)C(=O)N[C@@H](C)C(=O)N[C@@H](CCCNC(=N)N)C(=O)N[C@@H](CCC(N)=O)C(=O)N[C@@H](CCC(N)=O)C(=O)N[C@@H](C)C(=O)N[C@@H](CCCCNC(=O)CC[C@H](NC(=O)COCCOCCNC(=O)[C@@H](N)CCCCNC(=O)CCCCCCCCCCCCCCCCCCC(=O)O)C(=O)O)C(=O)N[C@@H](CCC(=O)O)C(=O)N[C@@H](CC(N)=O)C(=O)N[C@H](C(=O)N[C@@H](CCC(=O)O)C(=O)N[C@H](C(=O)N[C@@H](CC(C)C)C(=O)N[C@@H](C)C(=O)N[C@@H](CCC(N)=O)C(=O)N[C@H](C(N)=O)C(C)C)[C@@H](C)CC)[C@@H](C)O)[C@@H](C)CC)[C@@H](C)O)C(C)C)[C@@H](C)O)C(C)C` [SEQ ID NO: 36, Ac-IVTS αMeL D (D-Val) PTG αMeL LQIKLEQERAEKARQQAK(γE-(2-[2-(2-Amino-ethoxy)-ethoxy]-acetyl)-ϵK-CO-(CH2)18-CO2H)ENTEILAQV-NH2] (Ac-IVTS[αMeL]D[dV]PTG[αMeL]LQIKLEQERAEKARQQAK([γGlu-AEEA-εLys-C20 diacid])ENTEILAQV-NH2), the EC50 worked out at 4.4 ± 0.4 pM.

On to “{C20 diacid}-[Dap][AEEA][γGlu]GSPSIVTS[αMeL]DVPT[Aib][αMeL]LEKILEQERAEKARQQATEAAEILAQV-NH2 [SEQ ID NO: 52]”, for which the EC50 came out at 6.6 ± 0.5 pM.

Turning to `CC[C@H](C)[C@H](NC(C)=O)C(=O)N[C@H](C(=O)N[C@H](C(=O)N[C@@H](CO)C(=O)N[C@@](C)(CC(C)C)C(=O)N[C@@H](CC(=O)O)C(=O)N[C@@H](C(=O)N1CCC[C@H]1C(=O)N[C@H](C(=O)NCC(=O)N[C@@](C)(CC(C)C)C(=O)N[C@@H](CC(C)C)C(=O)N[C@@H](CCC(N)=O)C(=O)N[C@H](C(=O)N[C@@H](CCCCN)C(=O)N[C@@H](CC(C)C)C(=O)N[C@@H](CCC(=O)O)C(=O)N[C@@H](CCC(N)=O)C(=O)N[C@@H](CCC(=O)O)C(=O)N[C@@H](CCCNC(=N)N)C(=O)N[C@@H](C)C(=O)N[C@@H](CCC(=O)O)C(=O)N[C@@H](CCCCN)C(=O)N[C@@H](C)C(=O)N[C@@H](CCCNC(=N)N)C(=O)N[C@@H](CCC(N)=O)C(=O)N[C@@H](CCC(N)=O)C(=O)N[C@@H](C)C(=O)N[C@@H](CCCCNC(=O)[C@@H](N)CCCCNC(=O)CC[C@H](NC(=O)COCCOCCNC(=O)CCCCCCCCCCCCCCCCCCC(=O)O)C(=O)O)C(=O)N[C@@H](CCC(=O)O)C(=O)N[C@@H](CC(N)=O)C(=O)N[C@H](C(=O)N[C@@H](CCC(=O)O)C(=O)N[C@H](C(=O)N[C@@H](CC(C)C)C(=O)N[C@@H](C)C(=O)N[C@@H](CCC(N)=O)C(=O)N[C@H](C(N)=O)C(C)C)[C@@H](C)CC)[C@@H](C)O)[C@@H](C)CC)[C@@H](C)O)C(C)C)[C@@H](C)O)C(C)C` [SEQ ID NO: 35, Ac-IVTS αMeL D (D-Val) PTG αMeL LQIKLEQERAEKARQQAK(ϵK-γE-(2-[2-(2-Amino-ethoxy)-ethoxy]-acetyl)-CO-(CH2)18-CO2H)ENTEILAQV-NH2] (Ac-IVTS[αMeL]D[dV]PTG[αMeL]LQIKLEQERAEKARQQAK([εLys-γGlu-AEEA-C20 diacid])ENTEILAQV-NH2), the concentration giving a half-maximal response (EC50) worked out at 5.3 ± 0.9 pM.

As to `CC[C@H](C)[C@H](NC(C)=O)C(=O)N[C@H](C(=O)N[C@H](C(=O)N[C@@H](CO)C(=O)N[C@@](C)(CC(C)C)C(=O)N[C@@H](CC(=O)O)C(=O)N[C@@H](C(=O)N1CCC[C@H]1C(=O)N[C@H](C(=O)NCC(=O)N[C@@](C)(CC(C)C)C(=O)N[C@@H](CC(C)C)C(=O)N[C@@H](CCC(N)=O)C(=O)N[C@H](C(=O)N[C@@H](CCCCN)C(=O)N[C@@H](CC(C)C)C(=O)N[C@@H](CCC(=O)O)C(=O)N[C@@H](CCC(N)=O)C(=O)N[C@@H](CCC(=O)O)C(=O)N[C@@H](CCCNC(=N)N)C(=O)N[C@@H](C)C(=O)N[C@@H](CCC(=O)O)C(=O)N[C@@H](CCCCN)C(=O)N[C@@H](C)C(=O)N[C@@H](CCCNC(=N)N)C(=O)N[C@@H](CCC(N)=O)C(=O)N[C@@H](CCC(N)=O)C(=O)N[C@@H](C)C(=O)N[C@@H](CCCCNC(=O)CC[C@H](NC(=O)[C@@H](N)CCCCNC(=O)COCCOCCNC(=O)CCCCCCCCCCCCCCCCCCC(=O)O)C(=O)O)C(=O)N[C@@H](CCC(=O)O)C(=O)N[C@@H](CC(N)=O)C(=O)N[C@H](C(=O)N[C@@H](CCC(=O)O)C(=O)N[C@H](C(=O)N[C@@H](CC(C)C)C(=O)N[C@@H](C)C(=O)N[C@@H](CCC(N)=O)C(=O)N[C@H](C(N)=O)C(C)C)[C@@H](C)CC)[C@@H](C)O)[C@@H](C)CC)[C@@H](C)O)C(C)C)[C@@H](C)O)C(C)C` [SEQ ID NO: 37, Ac-IVTS αMeL D (D-Val) PTG αMeL LQIKLEQERAEKARQQAK(γE-ϵK-(2-[2-(2-Amino-ethoxy)-ethoxy]-acetyl)-CO-(CH2)18-CO2H)ENTEILAQV-NH2] (Ac-IVTS[αMeL]D[dV]PTG[αMeL]LQIKLEQERAEKARQQAK([γGlu-εLys-AEEA-C20 diacid])ENTEILAQV-NH2), the EC50 is 5 ± 0.2 pM.

The target of the next experiment is T2, human CRHR1 (Homo sapiens, UniProt P34998).
T2 construct: expressed in transfected cells
T2 sequence (P34998 24-415): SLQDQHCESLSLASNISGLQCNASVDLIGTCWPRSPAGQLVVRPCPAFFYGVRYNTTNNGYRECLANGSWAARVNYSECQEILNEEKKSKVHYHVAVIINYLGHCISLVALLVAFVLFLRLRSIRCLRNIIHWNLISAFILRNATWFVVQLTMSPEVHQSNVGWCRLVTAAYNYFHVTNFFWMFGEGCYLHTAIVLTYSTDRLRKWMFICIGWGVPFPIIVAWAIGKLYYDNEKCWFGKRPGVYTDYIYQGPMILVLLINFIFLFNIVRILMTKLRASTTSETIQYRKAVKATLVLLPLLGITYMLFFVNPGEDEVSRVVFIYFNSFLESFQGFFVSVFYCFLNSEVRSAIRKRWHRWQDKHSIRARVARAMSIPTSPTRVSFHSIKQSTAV
Put plainly: Human CRHR1 cAMP assay (HTRF) in HEK293 cells stably expressing human CRHR1. The experiment is classed as cell-based. The conditions noted are these: HEK293 cells overexpressing human CRHR1; relative EC50, maximum 66 nM human UCN1; mean ± SE; read-out: hCRHR1 cAMP EC50 (pM, ± SE). As to the method:
as §1, §2, §3, §4, §5, §6
“{C18 diacid-εLys-AEEA-γGlu}-GSPSIVTS[αMeL]DVPT[Aib][αMeL]LQKILEQERAEKARQQATEAAEILAQV-NH2 [SEQ ID NO: 28]”: the EC50 is over 1e+07 pM.
